Blank lines part the entries; values can stand above or below the molecule they belong to.
Legend:
[1] = target: T1, partially purified aldose reductase enzyme obtained from human placenta (Homo sapiens, UniProt P15121); test: inhibition of aldose reductase enzyme activity (procedure of Hayman et al., modified by Sestanj et al.); format: biochemical; conditions: 10^-5M
T1 construct: partially purified aldose reductase enzyme obtained from human placenta; from tissue; host or cells: human placenta
Procedure: The following spiro-3-heteroazolone compounds of Examples 4A, 4B, 6-9, 10A, 10B and 14, respectively, were tested for their ability to reduce or inhibit aldose reductase enzyme activity via the procedure of S. Hayman et al., as described in the Journal of Biological Chemistry, Vol. 240, p. 877 (1965) and as modified by K. Sestanj et al. in U.S. Patent No. 3,821,383. In every case, the substrate .employed was partially purified aldose reductase enzyme obtained from human placenta.

[2] = test system: sorbitol accumulation in the sciatic nerve and lens of streptozotocinized (i.e., diabetic) rats; test: inhibition of sorbitol accumulation in sciatic nerve and lens of streptozotocinized rats; format: in vivo; conditions: for Percent Inhibition (%) Lens / Percent Inhibition (%) Sciatic Nerve: sorbitol measured at 27 hours
Procedure: The following spiro-3-heteroazolone compounds of Examples 4A, 4B, 6 and 10A, respectively, were tested for their ability to reduce or inhibit sorbitol accumulation in the sciatic nerve and lens of streptozotocinized (i.e., diabetic) rats by the procedure essentially described in U.S. Patent No. 3,821,383. In the present study, the amount of sorbitol accumulation in the sciatic nerve and lens of each test animal was measured 27 hours after induction of diabetes. The compounds were then administered orally at the dose levels indicated at 4, 8 and 24 hours following the administration of streptozotocin. The results obtained in this manner are presented below in terms of percent inhibition (%) afforded by the test compound as compared to the case where no compound was administered (i.e., the untreated animal where sorbitol levels normally rise from approximately 50-100 mM/g. tissue to as high as 400 mM/g. tissue in the 27-hour test period): […]

[3] = 0.25 mg./kg. orally at 4, 8 and 24 hours after streptozotocin
[4] = 5.0 mg./kg. orally at 4, 8 and 24 hours after streptozotocin
[5] = 1.0 mg./kg. orally at 4, 8 and 24 hours after streptozotocin
[6] = 0.1 mg./kg. orally at 4, 8 and 24 hours after streptozotocin

SMILES: C[C@@H]1C[C@]2(NC(=O)NC2=O)c2cccnc2O1 (racemic) [Product of Example 8, (±)-cis-2',3'-dihydro-2'methyl-spiro-[imidazolidine-4, 4'-4'H-pyrano[2,3-b]pyridine]-2,5-dione]
- inhibition at 10 µM [1]: 57%

SMILES: C[C@@H]1C[C@]2(NC(=O)NC2=O)c2cc(Br)cnc2O1 (racemic) [Product of Example 6, (±)-cis-6'-bromo-2',3'-dihydro-2'-methyl-spiro-[imidazolidine-4,4'-4'H-pyrano[2,3-b]pyridine]-2,5-dione]
- inhibition at 10 µM [1]: 80%
- Percent Inhibition (%) Lens [2, 5]: 67%
- Percent Inhibition (%) Sciatic Nerve [2, 5]: 73%

SMILES: O=C1NC(=O)C2(CCOc3ncc(Cl)cc32)N1 (racemic) [Product of Example 7, (±)-6-chloro-2',3'-dihydro-spiro-[imidazolidine-4,4'-4'H-pyrano[2,3-b]pyridine]-2,5-dione]
- inhibition at 10 µM [1]: 60%

SMILES: C[C@@H]1C[C@]2(NC(=O)NC2=O)c2cc(Cl)c[n+]([O-])c2O1 [Product of Example 14, (4'S)(2'R)-6'-chloro-2',3'-dihydro-2'-methyl-spiro-[imidazolidine-4,4'-4'H-pyrano[2,3-b]pyridine]-2,5-dione-8'-oxide]
- inhibition at 10 µM [1]: 79%

More lines, main results first:

- inhibition at 10 µM [1]: 83%
SMILES: C[C@@H]1C[C@]2(NC(=O)NC2=O)c2cc(Cl)cnc2O1 (racemic) [Product of Example 4A, (±)-cis-8'-chloro-2',3'-dihydro-2'-methyl-spiro-[imidazolidine-4,4'-4'H-pyrano[2,3-b]pyridine]-2,5-dione]
- Percent Inhibition (%) Lens [2, 3]: 22%
- Percent Inhibition (%) Lens [2, 4]: 89%
- Percent Inhibition (%) Sciatic Nerve [2, 3]: 34%
- Percent Inhibition (%) Sciatic Nerve [2, 4]: 98%

- inhibition at 10 µM [1]: 100%
SMILES: C[C@H]1C[C@@]2(NC(=O)NC2=O)c2cc(Cl)cnc2O1 [Product of Example 10B, (2'S)(4'R)-6'-chloro-2',3^1-dihydro-2'-methyl-spiro-[imidazolidine-4,4'-4'H-pyrano[2,3-b]pyridine]-2,5-dione]

- inhibition at 10 µM [1]: 77%
SMILES: CC1CC2(NC(=O)NC2=O)c2cc(Cl)cnc2O1 (racemic) [Product of Example 4B, (±)-trans-6'-chloro-2',3'-dihydro-2'-methyl-spiro-[imidazolidine-4,4'-4'H-pyrano[2,3-b]pyridine]-2,5-dione]
- Percent Inhibition (%) Lens [2, 3]: 32%
- Percent Inhibition (%) Sciatic Nerve [2, 3]: 13%

- inhibition at 10 µM [1]: 77%
SMILES: C[C@@H]1C[C@]2(NC(=O)NC2=O)c2cc(F)cnc2O1 (racemic) [Product of Example 9, (±)-cis-6'-fluoro-2',3'-dihydro-2'-methyl-spiro-[imidazolidine-4,4'-4H-pyrano-[2,3-b]pyridine]-2,5-dione]

- inhibition at 10 µM [1]: 100%
SMILES: C[C@@H]1C[C@]2(NC(=O)NC2=O)c2cc(Cl)cnc2O1 [Product of Example 10A, (4'S)(2'R)-6'-chloro-2',3'-dihydro-2'-methyl-spiro-[imidazolidine-4,4'-4'H-pyrano[2,3-b]pyridine]-2,5-dione]
- Percent Inhibition (%) Lens [2, 6]: 33%
- Percent Inhibition (%) Lens [2, 5]: 73%
- inhibit the formation of sorbitol levels in both the sciatic nerve and lens of diabetic rats ([2]; oral route, dose levels ranging from 0.1-10.0 mg./kg., sciatic nerve and lens): significantly high degree
- Percent Inhibition (%) Sciatic Nerve [2, 6]: 43%
- Percent Inhibition (%) Sciatic Nerve [2, 5]: 78%
